Entries after “also recorded” stand apart in the source; their conditions may differ. Where a name gives a salt, the structure may show the parent alone. Read-outs that look alike come from different tables or passages of the source. Values belong to the compound of their own block, whether it stands above or below them.
Tests used:
SW480 cells = test: MTS cell viability assay, SW480; format: cell-based; conditions: read-out: IC50 ± SD
Protocol: (§1) 26. MTS Cell Viability Assay
(§2) Colorectal cancer cell lines, SW480 and HCT116 were seeded in 96-well plates at 4×10^3 cells/well, maintained overnight at 37° C., and incubated with the tested compounds at various concentrations. Cell viability was monitored after 72 h using a freshly prepared mixture of 1 part phenazine methosulfate (PMS, Sigma) solution (0.92 mg/mL) and 19 parts 3-(4,5-dimethylthiazol-2-yl)-5-(3-carboxymethoxyphenyl)-2-(4-sulfophenyl)-2H-tetrazolium (MTs, Promega) solution (2 mg/mL). Cells were incubated in 10 μL of this solution at 37° C. for 3 h, and A490 was measured. […] Experiments were performed in triplicate.

HCT116 cells = test: MTS cell viability assay, HCT116; format: cell-based; conditions: read-out: IC50 ± SD
Protocol: as §1, §2

β-catenin/BCL9 PPI = β-catenin/BCL9 PPI (Homo sapiens (Human), UniProt P35222); test: AlphaScreen competitive inhibition assay, wild-type β-catenin/BCL9 PPI; format: binding; conditions: wild-type β-catenin/BCL9 PPI, AlphaScreen competitive inhibition, mean ± SD (n=3)
Sequence of β-catenin/BCL9 PPI (P35222 138-686): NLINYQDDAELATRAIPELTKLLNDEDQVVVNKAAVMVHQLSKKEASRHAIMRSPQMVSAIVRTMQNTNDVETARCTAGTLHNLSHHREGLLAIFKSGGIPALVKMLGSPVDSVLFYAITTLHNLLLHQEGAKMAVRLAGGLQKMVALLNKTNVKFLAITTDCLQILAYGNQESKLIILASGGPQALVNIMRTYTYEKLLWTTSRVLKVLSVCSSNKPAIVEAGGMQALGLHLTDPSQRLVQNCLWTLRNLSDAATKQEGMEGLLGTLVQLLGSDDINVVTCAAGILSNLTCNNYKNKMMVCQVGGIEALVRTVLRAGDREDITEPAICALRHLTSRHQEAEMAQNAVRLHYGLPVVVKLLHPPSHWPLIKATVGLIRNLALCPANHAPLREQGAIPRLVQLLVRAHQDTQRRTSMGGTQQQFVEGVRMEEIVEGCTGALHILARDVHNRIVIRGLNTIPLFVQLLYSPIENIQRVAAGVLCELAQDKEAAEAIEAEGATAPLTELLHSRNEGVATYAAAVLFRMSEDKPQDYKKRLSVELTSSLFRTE
Protocol: Cells were cultured in LB medium with 30 μg/mL kanamycin until the OD600 was approximately 0.8, and then protein expression was induced with 400 μM of IPTG at 20° C. overnight. Cells were lysed by sonication. […] Native non-denaturing gel electrophoresis was performed to confirm the homogeneity of the purified proteins. Thermal-shift assay was performed on an iCycler iQ Real Time Detection System (Bio-Rad) to monitor protein stability and detect protein aggregation. Protein unfolding was evaluated through measuring the fluorescence changes of fluorescent dye Sypro Orange when interacting with wild-type or mutant β-catenin proteins. A temperature increment of 1°/min was applied. […] All spectra were recorded at room temperature, and the baseline control containing all of the substances except protein. Sample were prepared at a concentration around 1-5 μM in a buffer of 10 mM potassium phosphate and 100 mM potassium fluoride at pH 7.0 to ensure that the transmission of light through the sample was not restricted. […] Proteins were aliquoted and stored at −80° C.
25. Alphascreen Competitive Inhibition Assays Using Wild-Type and Mutant β-Catenin Proteins

[1] = biological target: β-catenin D145A/E155A double mutant/BCL9 interaction (Homo sapiens (Human), UniProt P35222, D145A/E155A); test: AlphaScreen competitive inhibition assay, β-catenin D145A/E155A double mutant/BCL9 interaction; format: binding; conditions: read-out: Ki ± SD
Sequence of β-catenin D145A/E155A double mutant/BCL9 interaction (P35222 138-686 D145A/E155A): as the sequence (P35222 138-686) above, with D8A, E18A counted along it
Protocol: (§3) β-Catenin mutants D145A, E155A, D145A/E155A have been made previously.^5 Wild-type β-catenin and its mutants (residues 138-686) were cloned into a pET-28b vector carrying a C-terminal 6×histidine (Novagen), and transformed into Escherichia coli BL21 DE3 (Novagen). Cells were cultured in LB medium with 30 μg/mL kanamycin until the OD600 was approximately 0.8, and then protein expression was induced with 400 μM of IPTG at 20° C. overnight. Cells were lysed by sonication. […] The purity of β-catenin was greater than 95% as determined by SDS-PAGE gel analysis. Native non-denaturing gel electrophoresis was performed to confirm the homogeneity of the purified proteins. Thermal-shift assay was performed on an iCycler iQ Real Time Detection System (Bio-Rad) to monitor protein stability and detect protein aggregation. Protein unfolding was evaluated through measuring the fluorescence changes of fluorescent dye Sypro Orange when interacting with wild-type or mutant β-catenin proteins. A temperature increment of 1°/min was applied. CD spectra were measured on a J-815 spectropolarimeter (Jasco). All spectra were recorded at room temperature, and the baseline control containing all of the substances except protein. […]

β-catenin E155A/BCL9 PPI = β-catenin E155A/BCL9 PPI (Homo sapiens (Human), UniProt P35222, E155A); test: AlphaScreen competitive inhibition assay, β-catenin E155A mutant/BCL9 PPI; format: binding
Sequence of β-catenin E155A/BCL9 PPI (P35222 138-686 E155A): as the sequence (P35222 138-686) above, with E18A counted along it
Protocol: as §3

β-catenin D145A/BCL9 PPI = β-catenin D145A/BCL9 PPI (Homo sapiens (Human), UniProt P35222, D145A); test: AlphaScreen competitive inhibition assay, β-catenin D145A mutant/BCL9 PPI; format: binding
Sequence of β-catenin D145A/BCL9 PPI (P35222 138-686 D145A): as the sequence (P35222 138-686) above, with D8A counted along it
Protocol: as §3

[2] = system: pcDNA3.1-β-catenin transfected HEK293 cells, TOPFlash (wild-type Tcf binding sites); test: TOPFlash Wnt-responsive luciferase reporter assay; format: cell-based; conditions: 24 h treatment, hydrochloride
Protocol: (§4) 27. Cell Transfection and Luciferase Assay
(§5) FuGENE 6 (E2962, Promega) in a 96-well plate format was used for the transfection of HEK293 and SW480 cells according to the manufacturer's instructions. HEK293 cells were co-transfected with 45 ng of the TOPFlash (with three wild-type Tcf binding sites) or FOPFlash (with three mutant Tcf binding sites) reporter gene, 135 ng pcDNA3.1-β-catenin and 20 ng pCMV-RL normalization reporter gene. SW480 cells were co-transfected with 60 ng of the TOPFlash or FOPFlash reporter gene and 40 ng pCMV-RL normalization reporter. Cells were cultured at 37° C. for 24 h, and different concentrations of inhibitors were then added. After 24 h, the luciferase reporter activity was measured using the Dual-Glo system (E2940, Promega). Normalized luciferase activity in response to the treatment with the inhibitors was compared with that obtained from the cells treated with DMSO. Experiments were performed in triplicate.

β-catenin/cadherin PPI = β-catenin/cadherin PPI (Homo sapiens (Human), UniProt P35222); test: AlphaScreen selectivity assay, β-catenin/BCL9 over β-catenin/cadherin PPIs; format: binding; conditions: in-parallel AlphaScreen selectivity assay
Sequence of β-catenin/cadherin PPI (P35222 138-686): as the sequence (P35222 138-686) above
Excerpt: Human BCL9 (residues 350-375), N-terminally biotinylated human BCL9 (residues 350-375), N-terminally fluorescein-labeled human BCL9 (residues 350-375), and N-terminally biotinylated human E-cadherin (residues 824-877) were synthesized by InnoPep Inc. (www.innopep.com) and HPLC purified by HPLC with purity>95%. The structures were validated by LC/MS. The sequences of these peptides have been described previously.^6
The experimental details of the AlphaScreen competitive inhibition assays for the β-catenin/BCL9 and β-catenin/E-cadherin PPIs have been described previously.^5 The concentrations of mutant β-catenin proteins used in the AlphaScreen competitive inhibition assays were the same as that of wild-type β-catenin protein.
The AlphaScreen selectivity assay was used to quantify inhibitor selectivity.

[3] = system: pcDNA3.1-β-catenin transfected HEK293 cells, FOPFlash (mutant Tcf binding sites); test: FOPFlash luciferase reporter assay; format: cell-based; conditions: up to 100 μM
Protocol: as §4, §5

Structure (SMILES): O=C(c1cc(F)cc(N2CCNCC2)c1)N1CCN(C(=O)c2ccc(O[C@H]3CCNC3)c(-c3ccc(F)cc3)c2)CC1 [Compound 2, (S)-(4-(3-fluoro-5-(piperazin-1-yl)benzoyl)piperazin-1-yl) (4′-fluoro-6-(pyrrolidin-3-yloxy)-[1,1′-biphenyl]-3-yl) methanone hydrochloride]
IC50 (SW480 cells; Homo sapiens, SW480 colorectal cancer cells, MTS, 72 h): 86 ± 8.8 µM | IC50 (HCT116 cells; Homo sapiens, HCT-116, HCT116 colorectal cancer cells, MTS, 72 h): 120 ± 16 µM | Ki (β-catenin/BCL9 PPI): 19 µM

Structure (SMILES): Cl.Cl.O=C(c1cc(F)cc(N2CCNCC2)c1)N1CCN(C(=O)c2ccc(O[C@H]3CCNC3)c(C3CCCCC3)c2)CC1 [Compound 10, (S)-(4-(3-Cyclohexyl-4-(pyrrolidin-3-yloxy)benzoyl)piperazin-1-yl) (3-fluoro-5-(piperazin-1-yl)phenyl) methanone hydrochloride]
IC50 (SW480 cells; Homo sapiens, SW480, 72 h): 22 ± 4 µM | Ki [1]: 53 ± 4.2 µM | Ki fold higher than for wild-type β-catenin/BCL9 PPI (β-catenin E155A/BCL9 PPI; β-catenin E155A/BCL9 PPI vs wild type): 6-8 fold | Ki (β-catenin E155A/BCL9 PPI; β-catenin E155A/BCL9 PPI, AlphaScreen competitive inhibition, read-out: Ki ± SD): 39 ± 3.3 µM | Ki fold higher than for wild-type β-catenin/BCL9 PPI (β-catenin D145A/BCL9 PPI; β-catenin D145A/BCL9 PPI vs wild type): 6-8 fold | Ki (β-catenin D145A/BCL9 PPI; β-catenin D145A/BCL9 PPI, AlphaScreen competitive inhibition, read-out: Ki ± SD): 29 ± 3 µM | IC50 (HCT116 cells; Homo sapiens, HCT-116, 72 h): 26 ± 6.6 µM | TOPFlash luciferase activity [2]: suppressed the TOPFlash (with wild-type Tcf binding sites) luciferase activity in a dose-dependent manner; also recorded: suppress the transactivation of canonical Wnt signaling | selectivity for β-catenin/BCL9 over β-catenin/cadherin PPIs (β-catenin/cadherin PPI): 98 fold | Ki (β-catenin/BCL9 PPI): 5.2 µM | FOPFlash luciferase activity [3]: did not affect

Structure (SMILES): CC1CCC(c2cc(C(=O)N3CCN(C(=O)c4cc(F)cc(N5CCNCC5)c4)CC3)ccc2O[C@H]2CCNC2)CC1.Cl (stereo partly drawn) [Compound 12, (S)-(4-(3-fluoro-5-(piperazin-1-yl)benzoyl)piperazin-1-yl) (3-(4-methylcyclohexyl)-4-(pyrrolidin-3-yloxy)phenyl) methanone hydrochloride]
IC50 (SW480 cells; SW480 colorectal cancer cells, MTS, 72 h): 44 ± 6.5 µM | IC50 (HCT116 cells; HCT116 colorectal cancer cells, MTS, 72 h): 39 ± 5.4 µM | TOPFlash luciferase activity [2]: suppressed the TOPFlash (with wild-type Tcf binding sites) luciferase activity in a dose-dependent manner; also recorded: suppress the transactivation of canonical Wnt signaling

Structure (SMILES): O=C(c1cc(F)cc(N2CCNCC2=O)c1)N1CCN(C(=O)c2ccc(O[C@H]3CCNC3)c(C3CCC(C(F)(F)F)CC3)c2)CC1 (stereo partly drawn) [Compound 76, (S)-1-(3-Fluoro-5-(4-(4-(pyrrolidin-3-yloxy)-3-(4-(trifluoromethyl)cyclohexyl)benzoyl)piperazine-1-carbonyl)phenyl)piperazin-2-one hydrochloride]
Ki (β-catenin/BCL9 PPI): 14 ± 3.6 µM

More lines, in order of falling Ki (β-catenin/BCL9 PPI), values ahead:

Ki (β-catenin/BCL9 PPI): 45 µM
Structure (SMILES): CC(C)[C@H]1CN(C(=O)c2cc(F)cc(N3CCNCC3)c2)CCN1C(=O)c1ccc(O[C@H]2CCNC2)c(-c2ccc(F)cc2)c1 [Compound 64, 4-(3-Fluoro-5-((5)-4-(4′-fluoro-6-(((S)-pyrrolidin-1-ium-3-yl)oxy)-[1,1′-biphenyl]-3-carbonyl)-3-isopropylpiperazine-1-carbonyl)phenyl)piperazin-1-ium chloride]

Ki (β-catenin/BCL9 PPI): 39 ± 7 µM
Structure (SMILES): O=C(c1cc(F)cc(N2CCNCC2=O)c1)N1CCN(C(=O)c2ccc(O[C@H]3CCNC3)c(C3CCCCC3)c2)CC1 [Compound 75, (S)-1-(3-(4-(3-Cyclohexyl-4-(pyrrolidin-3-yloxy)benzoyl)piperazine-1-carbonyl)-5-fluorophenyl)piperazin-2-one hydrochloride]

Ki (β-catenin/BCL9 PPI): 22 µM
Structure (SMILES): CC(C)C[C@H]1CN(C(=O)c2cc(F)cc(N3CCNCC3)c2)CCN1C(=O)c1ccc(O[C@H]2CCNC2)c(-c2ccc(F)cc2)c1 [Compound 68, 4-(3-Fluoro-5-((5)-4-(4′-fluoro-6-(((S)-pyrrolidin-1-ium-3-yl)oxy)-[1,1′-biphenyl]-3-carbonyl)-3-isobutylpiperazine-1-carbonyl)phenyl)piperazin-1-ium chloride]

— patent US11542254B2, “Methods and composition of 4-substituted benzoylpiperazine-1-substituted carbonyls as beta-catenin/B-cell lymphoma 9 inhibitors” (University of Utah Research Foundation, priority 2016, dated 2023)
